{"source": "paper PMC10028264", "about": "“Synergistic antifungal interaction of N-(butylcarbamothioyl) benzamide and amphotericin B against Cryptococcus neoformans” (Frontiers in Microbiology, 2023)", "assay_type_in_all_cases": "cell-based", "key": {"Cryptococcus neoformans": {"test_system": "Cryptococcus neoformans", "test": "Checkerboard broth microdilution assay on planktonic cells", "conditions": "both strains (ATCC 34872 and 1172)", "experimental": "The antifungal effect of BTU-01 combined with AmB was evaluated using the checkerboard broth microdilution assay, according to [Scott et al. (1995)]. Twofold serial dilutions of BTU-01 (0.03–1000.0 μg/mL) and AmB (0.000001–16.0 μg/mL) were respectively added across the rows and columns of the U-bottom 96-well microtiter plates. Thereafter, 100 μL (0.5–2.5 × 10^3 CFU/mL) of fungal inoculum was added and the plates were incubated at 37°C for 72 h. The Fractional Inhibitory Concentration (FIC) of each compound was determined by the ratio of the MIC obtained when the compounds were tested in combination and the MIC of the compounds tested individually. The FIC Index (FICI) was calculated from the sum of the FICBTU–01 and FICAmB, and the value was interpreted as: synergism FICI ≤ 0.5, no interaction 0.5 < FICI < 4.0, and antagonism FICI > 4.0 ([Odds, 2003])."}, "[1]": {"test": "Cytotoxicity, MTT reduction assay", "conditions": "24 h, MTT", "experimental": "(§1) The effect of BTU-01 was analyzed on mammalian epithelial cell lines [HEp-2 CCL-23™ (ATCC), LLC-MK2, VERO CCL81 and HeLa (Merck, Brazil)], and the cytotoxicity was evaluated as described by [Longhi et al. (2016)] with modifications. Briefly, cells were cultured in Dulbecco’s Modified Eagle’s medium (DMEM) supplemented with 10% fetal bovine serum (Invitrogen, Brazil), 2 mM L-glutamine, 100 IU/mL penicillin, 100 μg/mL streptomycin, 1% tylosin in flat-bottomed 96-well microtiter plates, in 5% CO2 at 37°C for 48 h. Then, the medium was carefully removed and fresh medium containing twofold serially diluted BTU-01 (0.095–500.0 μg/mL) was added. The cells were incubated for further 24 h under the same conditions. Cell viability was analyzed by the MTT reduction assay according to the manufacturer’s recommendation. The concentration of the compound needed to inhibit the viable cells up to 50 and 90% by regression analysis corresponds to the 50% (CC50) and 90% (CC90) cytotoxic concentrations, respectively.\n(§2) The concentration of BTU-01 capable of causing 90% of hemolysis/cytotoxicity was used to calculate the selectivity index (SI) using the following equation: SI = CC90/MIC."}, "HeLa": {"test_system": "HeLa", "test": "Cytotoxicity, MTT reduction assay", "conditions": "SI = CC90/MIC, MIC 62.5 μg/mL", "experimental": "as §1, §2"}, "LLC-MK2": {"test_system": "LLC-MK2", "test": "Cytotoxicity, MTT reduction assay", "conditions": "SI = CC90/MIC, MIC 62.5 μg/mL", "experimental": "as §1, §2"}, "VERO-CCL81": {"test_system": "VERO-CCL81", "test": "Cytotoxicity, MTT reduction assay", "conditions": "SI = CC90/MIC, MIC 62.5 μg/mL", "experimental": "as §1, §2"}, "human erythrocytes": {"test_system": "human erythrocytes", "test": "Hemolysis assay", "conditions": "estimated from the highest concentration tested; all cryptococcal strains", "experimental": "The cytotoxicity of BTU-01 (1.95–1000.0 μg/mL) alone and combined with AmB (0.015–16.0 μg/mL) was evaluated on human erythrocytes. Blood from a healthy donor was collected according to the Declaration of Helsinki principles, defibrinated and an erythrocytes suspension (3%) was prepared in 5% glycosylated saline. A total of 100 μL of the erythrocytes suspension was incubated for 3 h at 37°C in wells of U-bottom 96-well polystyrene plates containing different concentrations of the compounds. Wells without the compounds and with 1% Triton X-100 were used as negative and positive hemolysis controls, respectively. The OD of the supernatant was determined at 550 nm with a microtiter plate reader (Synergy HT, BioTek, USA). The percentage of hemolysis was calculated by comparison with the positive control ([Izumi et al., 2012]).\nas §2"}, "[2]": {"conditions": "African green monkey, VERO CCL81 cells"}}, "data": [{"smiles": "CCCCNC(=S)NC(=O)c1ccccc1", "note": "[BTU-01, N-(butylcarbamothioyl) benzamide]", "values": [{"measurement": "decrease in MIC value in combination", "setting": "Cryptococcus neoformans", "value": 16, "unit": "fold"}, {"measurement": "CC50 at 24 h", "setting": "[1]; [2]", "value": 121, "unit": "µg/mL"}, {"measurement": "CC90 at 24 h", "setting": "[1]; [2]", "value": 244, "unit": "µg/mL"}, {"measurement": "CC50 at 24 h", "setting": "[1]; human, HeLa cells", "value": 83.8, "unit": "µg/mL"}, {"measurement": "CC90 at 24 h", "setting": "[1]; human, HeLa cells", "value": 154, "unit": "µg/mL"}, {"measurement": "CC50 at 24 h", "setting": "[1]; rhesus monkey, LLC-MK2 cells", "value": 71.7, "unit": "µg/mL"}, {"measurement": "CC90 at 24 h", "setting": "[1]; rhesus monkey, LLC-MK2 cells", "value": 143, "unit": "µg/mL"}, {"measurement": "SI", "setting": "HeLa", "value": 2.5}, {"measurement": "SI", "setting": "LLC-MK2", "value": 2.3}, {"measurement": "SI", "setting": "VERO-CCL81", "value": 3.9}, {"measurement": "SI", "setting": "human erythrocytes", "value": "greater than 16"}]}]}
